Each compound was assayed on Artemia salina (assay: Cytotoxicity against brine shrimp).
Type: functional, organism-based
In the case of `CC1=NN(c2ccc(Br)cc2Br)C(=O)/C1=N\NC(N)=S`, the IC50 is reported as 36 ppm. In the case of `CC1=NN(c2ccc(Br)cc2Br)C(=O)C1=O`, the IC50 is reported as 36 ppm. `CC(=O)NNC1=NN(C(C)=O)C2(O1)C(=O)N(c1ccc(Br)cc1Br)N=C2C` (centres undefined) was tested, and the IC50 was 20 ppm. Compound `CC(=O)NC1=NN(C(C)=O)C2(S1)C(=O)N(c1ccc(Br)cc1Br)N=C2C` (centres undefined) has an IC50 of 19.5 ppm.
